Measurements published in US10112899B2 (ViiV HEALTHCARE UK LIMITED, priority 2014, dated 2018).

System: HIV in the HTLV-1 transformed cell line MT-4
Assay: organism not typed
Type: cell-based
Details: MT-4 cells, luciferase/cell titer glo readout after 96 hours, 10 point dose response

SMILES | IC50 (MT4, 96 h) | IC50
Cc1c(-c2c(C)c3c(c(C)c2[C@H](OC(C)(C)C)C(=O)O)CN(C(=O)N2CCC(F)(F)C2)C3)ccc2c1CCCO2 [Example 320, (2S)-2-(tert-butoxy)-2-(2-(3,3-difluoropyrrolidine-1-carbonyl)-4,7-dimethyl-6-(5-methylchroman-6-yl)isoindolin-5-yl)acetic acid] | 3 nM | 
Cc1c(-c2c(C)c3c(c(C)c2[C@H](OC(C)(C)C)C(=O)O)CN(C(=O)N2CCCCC2)C3)ccc2c1CCCO2 [Example 321, (2S)-2-(tert-butoxy)-2-(4,7-dimethyl-6-(5-methylchroman-6-yl)-2-(piperidine-1-carbonyl)isoindolin-5-yl)acetic acid] | 2 nM | 
Cc1ccc(-c2c(C)c3c(c(C)c2[C@H](OC(C)(C)C)C(=O)O)CN(C(=O)N2CCCCC2)C3)c(Cl)c1 [Example 322, (2S)-2-(tert-butoxy)-2-(6-(2-chloro-4-methylphenyl)-4,7-dimethyl-2-(piperidine-1-carbonyl)isoindolin-5-yl)acetic acid] |  | 5 nM
Cc1cc(Cl)ccc1-c1c(C)c2c(c(C)c1C(OC(C)(C)C)C(=O)O)CN(C(=O)N1CCC(F)(F)C1)C2 (stereo not drawn) [Example 323, 2-(tert-butoxy)-2-(6-(4-chloro-2-methylphenyl)-2-(3,3-difluoropyrrolidine-1-carbonyl)-4,7-dimethylisoindolin-5-yl)acetic acid] | 13 nM | 
Cc1cc(Cl)ccc1-c1c(C)c2c(c(C)c1[C@H](OC(C)(C)C)C(=O)O)CN(C(=O)C1CCCCC1)C2 [Example 324, (2S)-2-(tert-butoxy)-2-(6-(4-chloro-2-methylphenyl)-2-(cyclohexanecarbonyl)-4,7-dimethylisoindolin-5-yl)acetic acid] | 13 nM | 
Cc1cc(Cl)ccc1-c1c(C)c2c(c(C)c1[C@H](OC(C)(C)C)C(=O)O)CN(C(=O)CC(C)(C)C)C2 [Example 325, (2S)-2-(tert-butoxy)-2-(6-(4-chloro-2-methylphenyl)-2-(3,3-dimethylbutanoyl)-4,7-dimethylisoindolin-5-yl)acetic acid] | 13 nM | 
